Source: ChEMBL document CHEMBL3739361, “Design, facile synthesis and anthelmintic activity of new O-substituted 6-methoxybenzothiazole-2-carbamates” (2015)

Assays:
Type in all cases: functional
[1] = system: Paramphistomum; experiment: Antihelmintic activity against rumen flukes assessed as mortality at 40 ug/ml after 1 hr relative to control
[2] = system: Paramphistomum; experiment: Antihelmintic activity against rumen flukes assessed as mortality at 40 ug/ml after 2 hrs relative to control
[3] = system: Paramphistomum; experiment: Antihelmintic activity against rumen flukes assessed as mortality at 40 ug/ml after 4 hrs relative to control
[4] = system: Paramphistomum; experiment: Antihelmintic activity against rumen flukes assessed as mortality at 40 ug/ml after 6 hrs relative to control
[5] = system: Paramphistomum; experiment: Antihelmintic activity against rumen flukes assessed as mortality at 80 ug/ml after 1 hr relative to control
[6] = system: Paramphistomum; experiment: Antihelmintic activity against rumen flukes assessed as mortality at 80 ug/ml after 2 hrs relative to control
[7] = system: Paramphistomum; experiment: Antihelmintic activity against rumen flukes assessed as mortality at 80 ug/ml after 4 hrs relative to control
[8] = system: Paramphistomum; experiment: Antihelmintic activity against rumen flukes assessed as mortality at 80 ug/ml after 6 hrs relative to control

Row | SMILES | mortality at 40 µg/mL [1] [%] | mortality at 40 µg/mL [2] [%] | mortality at 40 µg/mL [3] [%] | mortality at 40 µg/mL [4] [%] | mortality at 80 µg/mL [5] [%] | mortality at 80 µg/mL [6] [%] | mortality at 80 µg/mL [7] [%] | mortality at 80 µg/mL [8] [%]
1 | COC(=O)Nc1nc2ccc(OCC(=O)N/N=C/c3ccco3)cc2s1 | 10 | 20 | 30 | 40 | 30 | 40 | 60 | 70
2 | COC(=O)Nc1nc2ccc(OCC(=O)NNS(=O)(=O)c3ccc(C)cc3)cc2s1 | 10 | 10 | 20 | 30 | 20 | 20 | 30 | 40
3 | CC(=O)Nc1nc2ccc(OCC3=NN(C(C)=O)C(c4ccc([N+](=O)[O-])cc4)O3)cc2s1 (stereo not given) | 10 | 30 | 40 | 70 | 20 | 50 | 70 | 100
4 | CC(=O)Nc1nc2ccc(OCC3=NN(C(C)=O)C(c4ccccc4)O3)cc2s1 (stereo not given) | 0 | 0 | 0 | 0 | 0 | 0 | 10 | 10
5 | COC(=O)NNC(=O)COc1ccc2nc(NC(=O)OC)sc2c1 | 10 | 20 | 30 | 40 | 30 | 40 | 70 | 80
6 | COC(=O)Nc1nc2ccc(OCC(=O)NNS(=O)(=O)c3ccccc3)cc2s1 | 10 | 10 | 20 | 30 | 20 | 30 | 40 | 50
7 | CC(=O)Nc1nc2ccc(OCC3=NN(C(C)=O)C(c4ccc(Cl)cc4)O3)cc2s1 (stereo not given) | 20 | 40 | 50 | 60 | 20 | 50 | 80 | 100
8 | COC(=O)Nc1nc2ccc(OCC(=O)N/N=C(\C)c3ccc(Br)cc3)cc2s1 (mixture of isomers) | 10 | 10 | 10 | 10 | 20 | 20 | 30 | 30
9 | COC(=O)Nc1nc2ccc(OCC(=O)N/N=C(\C)c3ccccc3)cc2s1 (mixture of isomers) | 10 | 10 | 10 | 20 | 20 | 20 | 20 | 30
10 | COC(=O)Nc1nc2ccc(OCC(=O)N/N=C/c3ccc(Cl)cc3)cc2s1 (mixture of isomers) | 0 | 0 | 10 | 20 | 20 | 30 | 50 | 60
11 | COC(=O)Nc1nc2ccc(OCC(=O)N/N=C(\C)c3ccc(C)cc3)cc2s1 (mixture of isomers) | 10 | 10 | 10 | 10 | 20 | 20 | 20 | 20
12 | COC(=O)Nc1nc2ccc(OCC(=O)N/N=C/c3ccc([N+](=O)[O-])cc3)cc2s1 (mixture of isomers) | 10 | 10 | 10 | 10 | 20 | 20 | 20 | 20
13 | COC(=O)Nc1nc2ccc(OCC(=O)N/N=C/c3ccccc3OC(=O)OC)cc2s1 (mixture of isomers) | 10 | 10 | 10 | 10 | 10 | 20 | 20 | 20
14 | COC(=O)Nc1nc2ccc(OCC(=O)N/N=C/c3ccccc3)cc2s1 (mixture of isomers) | 10 | 10 | 10 | 20 | 10 | 20 | 20 | 40
15 | COC(=O)Nc1nc2ccc(OCC(=O)N/N=C(\C)c3ccc(Cl)cc3)cc2s1 (mixture of isomers) | 10 | 10 | 30 | 40 | 30 | 40 | 50 | 70
16 | O=C(Nc1cc(Cl)cc(Cl)c1O)c1c(O)c(Cl)cc(Cl)c1Cl [OXYCLOZANIDE] | 30 | 70 | 100 | – | 50 | 100 | – | –
